Assay results from patent publication US7459441B2, “Remedies for dry eye and diseases associated with dry eye” (Senju Pharmaceutical Co., Ltd., priority 2001, dated 2008).
Where no end group is shown, it is not given here.

Assays:
[1] = Digestion test with bronchoalveolar lavage fluid (BALF); type: in vitro ADME; conditions: rat BALF, 90 minutes; for remaining at 1.5 h, 0.1 mg/mL: male, SD, bronchoalveolar lavage fluid (BALF), pH 7.4, 37° C., read-out: remaining rate (undegraded peptide by HPLC)
Experimental: The effect of highly basified Peptide 5 on digestion with bronchoalveolar lavage fluid was studied.
VIP and Peptide 5 were dissolved (1.1 mg/mL) in a 0.2% Tris-HCl buffer (pH 7.4), and bronchoalveolar lavage fluid (BALF) was added thereto. BALF was obtained by pouring 5 mL of a physiological saline into a trachea of a 8 to 9 week old normal SD male rat (about 350 g) under anesthesia, and recovering the saline, and repeating this procedure totally three times. To 0.5 mL of BALF was added 0.05 mL of a sample solution and the mixture was reacted at 37° C. for 90 minutes, and thereafter an amount of undegraded peptide was measured by HPLC.

[2] = test system: eyes of a Japanese white rabbit; test: Lacrimal secretion promotion activity of eye drops (2), Schirmer test with time; type: in vivo; conditions: for AUC0-120 min, accumulated value of increment of amount of lacrimal secretion after application / increment of amount of lacrimal secretion vs control group / AUC value compared with control group (significance): 0.1 w/v %; for AUC0-120 min, accumulated value of increment of amount of lacrimal secretion after application: 50 μL once to eyes, n = 8, average ± standard error; for increment of amount of lacrimal secretion vs control group: 10 minutes after the administration, n=8 (FIG. 2); for AUC value compared with control group (significance): 120 minutes after the administration, Dunnett-type multiple comparison test
Experimental: In the same manner as that of Test Example 4, Peptide 5 was applied, and an amount of lacrimal secretion was measured. In this test, an amount of lacrimal secretion was measured with time, and the effect was compared with that of VIP.
Preparation of a solution was performed in the same manner as that of Test Example 4, and VIP and Peptide 5 were dissolved in the vehicle at a concentration of 0.1 w/v %, to prepare a test solution.
[…] Measurement of an amount of lacrimal secretion was performed in the same manner as that of Test Example 4.

isolated lacrimal gland = test: Promotion of protein secretion from isolated lacrimal gland; parameters: species or system rabbit; conditions: 10^-4 M, treating time 0 to 40 minutes, n=5, Dunnett's test (FIG. 1)
Experimental: An isolated lacimal gland of a rabbit was treated with VIP, or Peptide 5 or 15, and the pharmacological effect of these peptides on increase in an amount of secreted protein was studied.
a) Purified water was added to sodium chloride (137.92 g), potassium chloride (7.01 g), calcium chloride-dihydrate (3.53 g) and magnesium chloride.hexahydrate (1.2 g) and the mixture was made up to a total volume of 1000 mL (Solution 1). Separately, purified water was added to potassium dihydrogen phosphate (8.17 g) and the mixture was made up to a total volume of 500 mL (Solution 2). Solution 1 (50 mL) and Solution 2 (10 mL) were added to 900 mL of purified water, 2.07 g of glucose and 2.1 g of […] were dissolved therein, a total amount was adjusted to 1000 mL (pH about 7.4) to obtain an incubation medium. The incubation medium was bubbled with mixed gas containing 95% oxygen and 5% carbon dioxide.
b) VIP, Peptide 5 or Peptide 15 was dissolved in the incubation medium at a concentration of 10^−4 M to obtain a test solution. […]
a) The piece specimen in the steady state was used, the incubation medium was exchanged with 0.5 mL of a fresh incubation medium, followed by incubation at 37° C. for 20 minutes. This incubation medium was collected, a protein staining reagent (DC Protein assay reagent, Bio Rad) was added thereto, and an amount of protein was measured and expressed as an amount of secreted protein per mg of wet weight. […]
b) The incubation medium of the piece specimen after incubation in a) was exchanged with 0.5 mL of a test solution, and the solution was exchanged and collected at 20 minutes intervals totally five times. A protein staining reagent was added to the collected solution, and an amount of protein was measured. For a piece specimen in a control group, the incubation medium was exchanged similarly, and an amount of protein was measured.

[3] = test system: eyes of a Japanese white rabbit; test: Lacrimal secretion promotion activity of eye drops (1), Schirmer test; type: in vivo; conditions: for Amount of lacrimal secretion (Schirmer's value), After administration: 10 minutes after single 50 μL application; for Amount of lacrimal secretion (Schirmer's value), After administration / amount of lacrimal secretion after vs before application (paired t test): Peptide 5 0.1 w/v %, Peptide 15 2.0 w/v %; for Amount of lacrimal secretion (Schirmer's value), After administration / Amount of lacrimal secretion (Schirmer's value), Before administration: n = 6, mean ± standard error; for Amount of lacrimal secretion (Schirmer's value), Before administration: baseline before single 50 μL application to eyes; for amount of lacrimal secretion after vs before application (paired t test): single application to eyes
Experimental: Peptide 5 or 15 was applied to eyes of a rabbit, and an amount of secreted tears was measured, whereby, the pharmacological effect of these peptides on increase in an amount of lacrimal secretion was studied.
Purified water was added to sodium chloride (0.9 g) and sodium dihydrogen phosphate.dihydrate (0.1 g) to make up to a total volume of 100 mL. Further, an appropriate amount of aqueous sodium hydroxide solution was added so as to adjust pH to 7.0 to obtain a vehicle. Peptide 5 was dissolved in the vehicle at a concentration of 0.1 w/v %, and Peptide 15 was dissolved in the vehicle at a concentration of 2.0 w/v %, to prepare test solutions.
Measurement of an amount of tears was performed by a Schirmer test. To eyes of a Japanese white rabbit, 50 μL of a test solution was applied once, and amounts of lacrimal secretion before and 10 minutes after the application to eyes were measured. Five minutes before measurement of an amount of tears, 10 μL of 0.4 w/v % oxybuprocaine hydrochloride (Anelocal™ eye drops, Senju Pharmaceutical Co., Ltd.) was dropped to topically anesthetize. After tears in palpebra interior conjunctival sac were wiped out using a filter paper, and an amount of lacrimal secretion for 1 minute was measured using a Schirmer test paper (Showa Yakuhin Kako Co., Ltd.).

[4] = Trypsin digestion test in the presence of chondroitin sulfate; type: in vitro ADME; conditions: 0.5 mU trypsin, pH 7.5, 37° C., 180 minutes, read-out: remaining rate (undegraded peptide by HPLC)
Experimental: The effect of highly basified Peptide 5 on digestion with trypsin was studied in the presence of chondroitin sulfate.
To 100 μL of a solution of VIP and Peptide 5 (1 mg/mL) was added 400 μL of a solution of chondroitin sulfate (pH 7.5, 100 μg/mL) in a 0.2 M Tris-HCl buffer (pH 7.5). To 100 μL of this solution was added 0.5 mU of trypsin and the mixture was incubated at 37° C. for 180 minutes. Then, an amount of an undegraded peptide was measured by HPLC.

Row | Compound | remaining at 1.5 h, 0.1 mg/mL [1] [%] | remaining rate as compared with VIP [1] | AUC0-120 min, accumulated value of increment of amount of lacrimal secretion after application [2] | increment of amount of lacrimal secretion vs control group [2] | AUC value compared with control group (significance) [2] | duration of lacrimal secretion promoting activity compared with VIP ([2]; application to eyes) | rate of protein secretion from isolated lacrimal gland vs control group (isolated lacrimal gland) | Amount of lacrimal secretion (Schirmer's value), After administration [3] [mm/min] | Amount of lacrimal secretion (Schirmer's value), Before administration [3] [mm/min] | amount of lacrimal secretion after vs before application (paired t test) [3] | remaining at 3 h, 0.2 mg/mL [4] [%]
1 | HSDAVFTDNYTRLRRQLAVRRYLNSILNGRR-NH2 [Peptide 5] | 80 | about 1.8 fold | 359.2 ± 85.0 ΔSchirmer's value × min. | significantly increased | significantly higher value | longer-lasting | significantly increased | 8.92 ± 0.45 | 2.00 ± 0.62 | significantly increased | 89
2 | CC[C@H](C)[C@H](NC(=O)[C@H](CO)NC(=O)[C@H](CC(N)=O)NC(=O)[C@H](CC(C)C)NC(=O)[C@H](Cc1ccc(O)cc1)NC(=O)[C@H](CCCCN)NC(=O)[C@H](CCCCN)NC(=O)[C@@H](NC(=O)[C@H](C)NC(=O)[C@H](CCSC)NC(=O)[C@H](CCC(N)=O)NC(=O)[C@H](CCCCN)NC(=O)[C@H](CCCNC(=N)N)NC(=O)[C@H](CC(C)C)NC(=O)[C@H](CCCNC(=N)N)NC(=O)[C@@H](NC(=O)[C@H](Cc1ccc(O)cc1)NC(=O)[C@H](CC(N)=O)NC(=O)[C@H](CC(=O)O)NC(=O)[C@@H](NC(=O)[C@H](Cc1ccccc1)NC(=O)[C@@H](NC(=O)[C@H](C)NC(=O)[C@H](CC(=O)O)NC(=O)[C@H](CO)NC(=O)[C@@H](N)Cc1c[nH]cn1)C(C)C)[C@@H](C)O)[C@@H](C)O)C(C)C)C(=O)N[C@@H](CC(C)C)C(=O)N[C@@H](CC(N)=O)C(N)=O [VIP, Vasoactive Intestinal Peptide, reference compound] | 45.5 |  | 215.0 ± 98.2 ΔSchirmer's value × min. | significantly increased | a significant difference is not recognized |  | significantly increased |  |  |  | 75
3 | Peptide 15: VIP derivative of formula (I): X1 Lys, X2 Leu, X3 Lys, X4 Lys, X5 chemical bond, X6 -NH2 (HSDAVFTDNYTRLRKQLAVKKYL-NH2) |  |  |  |  |  |  | significantly increased | 7.75 ± 2.16 | 3.25 ± 1.20 | tendency of increase | 
